Assays:
[1] = Observation at blood vessel level (cremaster skin flap); type: in vivo; conditions: rat, exposed blood vessel
Protocol: ICG or TK1 was administered in a state in which a blood vessel of a rat was directly exposed and observed by methods disclosed in Non Patent Documents 7 and 8 (FIG. 15), and a state of a cremaster skin flap after the exposure is shown in FIG. 16. ICG or TK1 was administered in the state in which the blood vessel was exposed, and the observation was performed. As a result, it was observed that ICG was unevenly distributed in the blood vessel, compared to TK1. […] In order to more precisely study it, photomicrographs of the blood vessel after the administration are shown in FIG. 17 (ICG) and FIG. 18 (TK1).

[2] = Luminance of dorsalis pedis in λ-carrageenin edema rats (acute inflammation experiment); type: in vivo, rat
Protocol: Rats (male, Wister rat) which were 10-week old and about 350 g were selected as a test animal (n=4). The rat was generally anesthetized with isoflurane, and 0.1 mL of 0.5% […] was injected to a left posterior footpad using a 26 G needle, thus resulting quick generation of edema on the foot. After 15 minutes, a volume of the left foot of the rat was measured using a rat footpad volume-measuring device (MK-101 CMP PLETHYSMOMETER manufactured by Muromachi Kikai Co., Ltd.).
After that, the isoflurane was off and the emergence of the rat was confirmed. After Von Frey test was performed, the rat was generally anesthetized with isoflurane again. […]
A moiety (ROI) to be measured by the PDE camera was set at a central part of the dorsalis pedis and light was turned off. […] After that, luminance was measured for one minute at 5 minute-intervals and the measurement was continued until 120 minutes from the infusion. […]
After 7 days, a Von Frey test was performed and then the rat was quickly generally anesthetized with isoflurane, and the volume of the left foot of the rat was measured by using the rat footpad volume-measuring device. […] After that, luminance was measured for one minute at 5 minute-intervals and the measurement was continued until 120 minutes from the infusion. […]

[3] = Molecule association in aqueous solution (optical absorption spectrum); type: physicochemical; conditions: 0.01 mM to 0.1 mM aqueous solutions, 25° C., absorption 600 nm to 1000 nm
Protocol: The molecule association of ICG and the cyclodextrin-bonded indocyanine compounds of the present invention (the chemical formulae 16, 20, 21, and 23 to 25) in an aqueous solution was studied. Each of 0.01 mM, 0.025 mM, 0.05 mM, and 0.1 mM aqueous solutions including ICG or the cyclodextrin-bonded indocyanine compound of the present invention (each chemical formula 16, 20, 21, and 23 to 25) was prepared, it was put in a quartz cell having a length of an optical path of 1 mm, and an optical absorption spectrum at 600 nm to 1000 nm was measured at 25° C.

[4] = Observation of distribution in rat body (caudate vein administration, PDE camera); type: in vivo
Protocol: Left is a monochrome image through visible light, and right is a fluorescence image.
After Wistar male rat (9-week old, a body weight of 350 g) was ether-anesthetized, 0.1 mL of Nembutal was intraperitoneally administered using a 26 G needle to perform the anesthesia. A base of the rat's tail was wrapped tightly with a rubber band to prevent the flow of blood, and the caudate vein was secured with a 24 G Therflow needle and a peripheral line were secured by inserting a three-way stopcock and an extension tube. The rat was fixed on a flat stand in a supine position (FIG. 8). A PDE camera unit manufactured by Hamamatsu Photonics K.K. was set at exactly 16 cm from the body of the rat. When the whole body was extensively photographed, the distance was 20 cm. The observation range was an about range shown by black dots in FIG. 8. After that, ICG, TK1 or TK2 was administered in a concentration of 1 mM from the peripheral line secured. The administration amount was 0.1 mL. After 20 minutes from the administration, the fluorescence state of the abdominal cavity which was opened is shown in FIG. 9, and the fluorescence state (images at the maximum luminance) of the dorsal region of foot was shown in FIG. 12.
In addition, a time reaching the maximum fluorescence intensity value (Imax), Imax value and a time at which the value reached a half of the Imax value (t1/2) are shown in Table 1.

[5] = Solubility tests in water or physiological saline; type: physicochemical; conditions: powder
Protocol: Solubility tests of ICG and the cyclodextrin-bonded indocyanine compounds of the present invention (the chemical formulae 16, 20, 21, and 23 to 25) in water or physiological saline were performed.

[6] = cited from earlier work
[7] = Fluorescence in blood (surface fluorescence spectrum); conditions: 100 μM in blood (human), 25° C., 760 nm excitation
Protocol: The fluorescence of ICG and the cyclodextrin-bonded indocyanine compounds of the present invention (the chemical formulae 16, 20, 21, and 23 to 25) in blood was studied. ICG and the cyclodextrin-bonded indocyanine compounds of the present invention (the chemical formulae 16, 20, 21, and 23 to 25) were respectively dissolved in blood (human) in a concentration of 100 μM. The resulting blood was put in a triangular quartz cell at 25° C., which was excited with 760 nm excitation light (bandpass: 10 nm), and a surface fluorescence spectrum (bandpass: 10 nm) was measured. […] The cyclodextrin-bonded indocyanine compounds of the present invention, in particular, the compounds represented by the chemical formula 16 and the chemical formula 20 had respectively fluorescence intensities of 270 (arbitrary unit) and 190 (arbitrary unit), which were 4.7-fold and 3.3-fold of that of ICG. It could be considered that this is caused because the emission of light from the cyclodextrin-bonded indocyanine compound of the present invention was not hindered in the living body.

[8] = in DMSO, at 25° C.; cited from earlier work
[9] = Ischemia model of lower limbs (ligation of right femoral artery); type: in vivo; conditions: rat
Excerpt: As apparent from the image view 12, the state in which the fluorescence was emitted in accordance with the blood flow was clear in the dorsal region of foot.

[10] = Fluorescence in aqueous solution; type: physicochemical; conditions: 0.1 μM aqueous solution, 25° C., 720 nm excitation; relative to ICG 0.13 in DMSO
Protocol: The fluorescence of ICG and the cyclodextrin-bonded indocyanine compounds of the present invention (the chemical formulae 16, 20, 21, and 23 to 25) in an aqueous solution was studied. A 0.1 μM aqueous solution including ICG or each of the cyclodextrin-bonded indocyanine compounds of the present invention (the chemical formulae 16, 20, 21, and 23 to 25) was put in a 1 cm square quartz cell at 25° C., which was excited with 720 nm excitation light (bandpass: 10 nm), and a fluorescence spectrum (bandpass: 10 nm) was measured. A fluorescence efficiency was calculated based on a fluorescence efficiency of ICG, 0.13 (in DMSO, at 25° C.). […] The fluorescence quantum efficiencies thereof were respectively 2.6-fold and 2-fold of that of ICG.

[11] = rat dorsal region of foot, 1 mM 0.1 mL caudate vein

- time for luminance in ROI to decrease to the base line ([2]; rat dorsalis pedis, 0.1 mL caudate vein): about 10 minutes
- molecule association called H-aggregation [3]: occurred
- organ of main accumulation ([4]; Wistar rat, 1 mM 0.1 mL caudate vein, 20 minutes after administration, abdominal cavity opened): mainly accumulated in the liver
- half-life ([4]; male, Wistar, intravenous, 0.1 mL of 1 mM solution, rat dorsal region of foot, 1 mM 0.1 mL caudate vein, read-out: t1/2 (time at which the value reached a half of the Imax value)): 2.3 min
- time after administration until fluorescence intensity was reduced to about initial value ([4]; rat dorsal region of foot): less than 10 minutes
- Imax* (maximum fluorescence intensity value) [4, 11]: 124
- Time for Imax (time reaching the maximum fluorescence intensity value) [4, 11]: 0.5 min
- fluorescence quantum efficiency [10]: 0.021
Compound: CC1(C)C(/C=C/C=C/C=C/C=C2\N(CCCCS(=O)(=O)O)c3ccc4ccccc4c3C2(C)C)=[N+](CCCCS(=O)(=O)[O-])c2ccc3ccccc3c21 [ICG, indocyanine green]
- transfer from the blood vessel into the interstitial tissue fluid [1]: hardly transferred from the blood vessel into the interstitial tissue fluid
- luminance change of dorsalis pedis, λ-carrageenin group versus control ([2]; rat, dye infused after λ-carrageenin injection, interstitial tissue phase): the difference in the luminance was not observed
- dissolving in water or physiological saline (need for vibration-stirring) [5]: About one minute violent vibration-stirring was necessary
- organ of accumulation (as already known) [6]: highly accumulated in liver
- fluorescence intensity at the maximum fluorescence wavelength [7]: 58 arbitrary unit
- fluorescence efficiency (reference value) [8]: 0.13
- fluorescence in the ischemia area [9]: the fluorescence was not observed in the ischemia area
